Laboratory results from publication PMC11474028, “Lipopeptide antibiotics disrupt interactions of undecaprenyl phosphate with UptA” (Proceedings of the National Academy of Sciences of the …, 2024).
Read-outs that look alike come from different tables or passages of the source.

Legend:
MurG = conditions: read-out: Kd, MurG/lipid I; cited from earlier work
Method: (§1) We explored the binding affinity of UptA toward C55-P by recording mass spectra for solutions containing 2.5 µM UptA and 0 to 40 µM C55-P in 200 mM ammonium acetate, 0.05% LDAO at pH 8.0. […] Further increase in the concentration of C55-P enhanced the intensity of the UptA:C55-P complex, together with the emergence of additional binding events (Fig. 2A). We deconvoluted the spectra ([34]) to extra ...

[1] = cited from earlier work
Excerpt: To this end, we prepared UptA:C55-P mixtures and then equilibrated aliquots with bacitracin and vancomycin. […] Despite the combined cellular pool of C55-PP and C55-P being limited to ~1.5 × 10^5 molecules per cell ([56]), they mediate the transport of glycan-bearing components of the cell wall peptidoglycan, teichoic acid, and capsular polysaccharid ...

UptA [2] = molecular target: T1, UptA (Bacillus subtilis, UniProt O31823); assay: Native MS of antibiotic binding to UptA; conditions: 2.5 µM UptA, 10 µM C55-P, antibiotic up to 100 µM (polymyxins 100 µM), 0.05% LDAO, 200 mM ammonium acetate, 75 V
Method: We next investigate how UptA and its complex with C55-P interact with a range of cell-wall targeting antibiotics including the lipopeptides daptomycin and amphomycin. […] We investigated whether daptomycin affects C55-P binding to UptA by recording spectra for solutions containing 2.5 µM UptA, 10 µM C55-P, and different concentrations of daptomycin.
(§2) Amphomycin and derivatives are known to kill bacteria by forming complexes with free C55-P ([46]), however, whether or not this involves a direct interaction with a protein cellular target is not known. We therefore investigated how amphomycin affects the UptA:C55-P complex. We recorded spectra for solutions containing 2.5 µM UptA, 10 µM C55-P and then equilibrated aliquots with increasing concentrations of amphomycin.
The amphiphilic nature of daptomycin and amphomycin raises the possibility that these lipopeptide antibiotics may promiscuously bind to UptA in a nonspecific manner. We probe this possibility by recording spectra for UptA:C55-P solutions in the presence of 100 µM polymyxin B and 100 µM polymyxin E. These polymyxins are membrane-disrupting lipopeptides that target the outer membrane lipopolysaccharides in Gram-negative bacteria ([47]) but without a known affinity for C55-P or UptA.
To this end, we prepared UptA:C55-P mixtures and then equilibrated aliquots with bacitracin and vancomycin.
(§3) Detailed experimental procedures are provided in SI Appendix. Briefly, UptA (wild type and mutants) was expressed in E. coli C43(DE3) cells (Lucigen) with GFP fusion on the C-terminus and solubilized from the membrane fraction by n-dodecyl-β-D-maltopyranoside (DDM). After purification by affinity chromatography, the GFP was cleaved by TEV protease and removed, and UptA was further purified by size-exclusion chromatography in a buffer containing 20 mM Tris-HCl (pH 8.0), 200 mM NaCl, 0.02% DDM. Before measurements, proteins were buffer-exchanged into 0.05% LDAO, 200 mM ammonium acetate at the desired pH using a centrifugal buffer exchange device (Micro Bio-Spin 6, Bio-Rad). Stock solutions of lipids were prepared from chloroform/methanol solution by evaporating aliquots of known volume in a SpeedVac. After drying, the lipid films were weighed and resuspended to a final concentration of 0.5 mM in 200 mM ammonium acetate and 0.05% LDAO by vertexing. Stock solutions of 0.5 mM amphomycin, aspartocin D, daptomycin, polymyxin B, polymyxin E, and bacitracin were made in the same buffer. All experiments were repeated three times from newly prepared stock solutions. Native mass spectrometry was performed on a Q-Exactive hybrid quadrupole-Orbitrap mass spectrometer (Thermo Fisher Scientific, Bremen, Germany), and lipid identification was performed on an Orbitrap Eclipse Tribrid mass spectrometer (Thermo). […]

UptA:C55-P complex = assay: Native MS of UptA:C55-P complex in the presence of antibiotics; format: binding, Bacillus subtilis; conditions: 2.5 µM UptA, 10 µM C55-P, 0 to 100 µM antibiotic, 75 V; mean of three independent replicates
Method: as §2
(A) Mass spectra (6+ charge state) for solutions containing 2.5 µM UptA and 10 µM C55-P incubated with 0 to 100 µM amphomycin. (B) Relative intensity of C55-P bound to UptA in the presence of amphomycin and daptomycin. The bar represents the mean of three independent replicates shown as data points and error bars are SD. […] (C) Fraction of C55-P bound to UptA in the presence of cell wall targeting antibiotics. Each sample contains 2.5 µM UptA, 10 µM C55-P and 100 µM of indicated antibiotic, and spectra were acquired using the same instrument settings and collisional activation of 75 V. The bar represents the mean of three independent replicates shown as data points, and the error bar represents SD. […]
as §3

UptA [3] = molecular target: T1, UptA; assay: Native MS of phospholipid binding to UptA
Excerpt: Proteins belonging to the DedA family are a widespread family of transporters and are proposed to flip diverse lipids, including carrier lipids and membrane phospholipids. We therefore probed the interaction of UptA with membrane phospholipids to understand whether the latter could modulate its function. For this purpose, we selected anionic phosphatidylglycerols (PG) and zwitterionic phosphatidylethanolamines (PE), representing the major classes of phospholipid headgroups found in B. subtilis ([41], [42]). We recorded mass spectra of solutions containing 4 µM UptA incubated with 10 µM a15:0-i15:0 PE and 10 µM a15:0-i15:0 PG (a15:0, anteiso-pentadecanoic acid; i15:0, iso-pentadecanoic acid). The fatty acid composition of these lipids closely mimics those of native B. subtilis lipids (see below). The resulting spectra display peaks corresponding to UptA in apo and lipid-bound forms in both cases (Fig. 4 A and B). […] We therefore hypothesize that UptA interacts more favorably with PG than with PE.
To verify the lipid binding preference of UptA with more native-like lipids, we prepared lipid extracts from B. subtilis membranes (Materials and Methods). We then incubate an aliquot of the resulting crude lipids (SI Appendix, Fig. S8) with UptA. The spectra yielded peaks assigned to UptA in complex with cardiolipins (~1,326 Da) and a range of phospholipids, predominantly 694 Da, 721 Da, 748 Da, and 776 Da species (Fig. 4 D and E). To identify these lipids, we performed tandem MS/MS, isolating the lipid species and subjecting it to collisional activation. […] The fatty acid fragments are mixed populations, predominantly 15:0-15:0, 15:0-17:0, 16:0-16:0, and 16:0-18:1 (SI Appendix, Fig. S9) which are the typical fatty acids from B. subtilis membrane phospholipids ([42]). We therefore conclude that UptA interacts more favorably with the anionic cardiolipins and phosphatidylglycerols than with the zwitterionic phosphatidylethanolamines in the membrane lipid extracts.
as §3
Lipid extracts from B. Subtilis
B. subtilis strain 168 (ATCC 23857) was cultivated in […] LB media at 37 °C until OD600 nm 1.2 under aurobic conditions. Cells were harvested by centrifugation at 4,000 g for 20 minutes and resuspended in 20 mM Tris-HCl (pH 8.0), 150 mM NaCl. Cells were lysed by 5-6 passes through a microfluidizer at 20,000 psi. The lysates were clarified by centrifugation at 4,000 g for 10 minutes, and the totoal membrane was pelleted at 120,000 g for 1 h. The membrane pellet was ressupended […]

UptA [4] = molecular target: T1, UptA; assay: Native MS competition of C55-P and phospholipids for UptA binding; conditions: 4 µM UptA and 10 µM C55-P, increasing DOPG (up to 20 µM) or DOPE
Method: To investigate whether or not C55-P can outcompete phospholipids in binding to UptA, we incubated solutions containing UptA-DOPG with increasing concentrations of C55-P. Spectra were recorded after aliquots of the solution were equilibrated on ice for 15 min. […] We therefore hypothesised that phospholipids should be unable to outcompete C55-P bound to UptA. To test this hypothesis, we incubated UptA with C55-P and then equilibrated aliquots with an increasing concentration of DOPG. […]
The chloroform layer containing the total lipids was recovered into a clean glass vial, and the organic solvent was evaporated in a SpeedVac for 16 h. Lipid film was resuspended 200 mM ammonium acetate, 0.05% LDAO (pH 8.0) to ~0.5 mg/mL for the binding experiments.
Sample preparation for native MS
Before measurements, the protein was buffer-exchanged into 0.05% LDAO, 200 mM ammonium acetate (“MS buffer”) at the desired pH using a centrifugal buffer exchange device (Micro Bio -Spin 6, Bio-Rad). Stock solutions of lipids were prepared from chloroform/methanol solution by evaporating aliquots of known volume in a SpeedVac. After drying, the lipid films were weighed and resuspended to a final concentration of 0.5 mM in 200 mM ammonium acetate (pH8) and 0.05% LDAO by vertexing. Stock solutions of 0.5 mM amphomycin, aspartocin D, daptomycin and bacitracin, were made in the same buffer. All experiments were repeated three times from newly prepared stock solutions.
About 3 μL protein aliquot was transferred into a gold-coated borosilicate capillary (Harvard Apparatus) and was mounted on the nano ESI source of a Q-Exactive hybrid quadrupole-Orbitrap mass spectrometer (Thermo Fisher Scientific, Bremen, Germany). The instrument settings were 1.2 kV capillary voltage, S-lens RF 200%, argon UHV pressure 3.3 × 10−10 mbar, the capillary temperature was set to 200 °C, and resolution of the instrument was set to 17,500 at a transie nt time of 64 ms. […] The resulting fragments were detected in the Orbitrap (R = 280,000 @ m/z 200), averaging ~500 transients to maximise the signal-to-noise ratio. […]

MurJ = conditions: read-out: Kd, MurJ/lipid II; cited from earlier work
Method: as §1

[5] = molecular target: the molecule itself; assay: native MS; UptA 2.2 µM (E32A 2.5 µM, with 10 µM C55-P) in 200 mM ammonium acetate pH 8.0, 0.05% LDAO; dimer 9+ charge state isolated and dissociated into protomers by HCD (190 V); more dimer at pH 8.0 than at pH 5.0

CC(=O)N[C@H]1[C@@H](OP(=O)(O)OP(=O)(O)OC/C=C(/C)CC/C=C(/C)CC/C=C(/C)CC/C=C(/C)CC/C=C(/C)CC/C=C(/C)CC/C=C(/C)CC/C=C(\C)CC/C=C(\C)CC/C=C(\C)CCC=C(C)C)O[C@H](CO)[C@@H](O)[C@@H]1O[C@H](C)C(=O)N[C@@H](C)C(=O)N[C@H](CCC(=O)N[C@@H](CCCCN)C(=O)N[C@H](C)C(=O)N[C@H](C)C(=O)O)C(=O)O [lipid I]
Kd (MurG): 1890 ± 600 nM

teixobactin
complex formation with or sequestration of C55-PP (in words) [1]: form complex with C55-PP

bacitracin
binding of antibiotic to UptA (in words) (UptA [2]): bind to UptA but with very low intensities | effect of antibiotic on UptA:C55-P complex (in words) (UptA:C55-P complex): modestly competes against C55-P binding to UptA | complex formation with or sequestration of C55-PP (in words) [1]: form complex with C55-PP | complex formation with or sequestration of C55-PP (in words) ([1]; listed as Bacitracin): sequestration of C55-PP

CCCCCCCC/C=C\CCCCCCCC(=O)OC[C@H](COP(=O)(O)OCC(O)CO)OC(=O)CCCCCCC/C=C\CCCCCCCC (stereo partly drawn) [18:1-18:1 PG]
mean relative intensity of UptA in complex with phospholipid, comparison (in words) (UptA [3]; 4 µM UptA with 10 µM lipid (stated for a15:0-i15:0 lipids), mean of three independent replicates): bind to UptA more intensely than 16:0-18:1 PE and 18:1-18:1 PE, respectively | UptA-lipid complexes formed (stoichiometry, in words) (UptA [3]; 4 µM UptA with 10 µM lipid, native MS): binding of 1 to 2 molecules of DOPG per UptA | displacement of C55-P from UptA by phospholipid (in words) (UptA [4]): C55-P remains bound to UptA even in the presence of excess DOPG (20 µM)

CCCCCCCC/C=C\CCCCCCCC(=O)OC[C@H](COP(=O)(O)OCCN)OC(=O)CCCCCCC/C=C\CCCCCCCC [18:1-18:1 PE]
displacement of C55-P from UptA by phospholipid (in words) (UptA [4]): could not efficiently displace C55-P from UptA

lipid II
Kd (MurJ): 2900 ± 600 nM

B1: UptA (undecaprenyl phosphate transporter A), Bacillus subtilis, wild type (natural protein, UniProt O31823 1-198, looked up)
chain: MGSLISEILTWLTNMGYAGIAIGLMIEIIPSEIVLAYGGYMVSEGTIGFIGAIIAGVIGGTIAQIFIYWIGRYGGRPFLDKYGKYLLIKKHHIDMSENWFQKYGAGVVFSARFIPVVRHAISIPAGIARMPFLKFVVLTVLAIIPWSILFVYLGIQLGSQWDDVENIAGTYTTPIMILAVVVIALYFVIKKRTAIFKR
modifications: formylation of the N-terminal methionine
notes: UptA, DedA family membrane protein of Bacillus subtilis; detailed procedures are in SI Appendix; In equilibrium of monomers and dimers; also called WT; not shown: GFP, C-terminal, cleaved
stoichiometry N [5]: 2
